Data set [1] is described as follows: Dust hazard analysis: ignition sensitivity of dust cloud. The data set is classed as physicochemical. To be noted: for Susceptibility to ignition as a dust cloud: result in words. An excerpt:
(§1) “μm” means micrometer. “gm” means gram. “cc” means cubic centimeter. “gm/cc” means gram per cubic centimeter. “Kst” is the deflagration index of a dust expressed in bar-meter per second. “bar-m/s” means bar meter per sec. “bar/s” means bar per second. “mJ” means millijoules. “St” is the geneal classification designation for explosible dusts: “St-2” is classified as a strong explosion designation and has Kst>200 bar-m/sec; “St-1” is not classified as a strong explosion and has Kst<200 bar-m/sec.
(§2) Twenty liter sphere testing (see Proust, C.; Accorsi, A.; Dupont, L. Journal of Loss prevention in the Process Industries, vol. 20, 2007.) places the sample in the St-2 (strong explosion) class with a Kst value of 238 bar-m/s.
(§3) Therefore, twenty liter sphere testing was not required.

Data set [2] can be described thus: Dust hazard analysis: explosion severity (twenty liter sphere testing), Kst and St classification. The data set is classed as physicochemical. To be noted: for Explosion Severity (Max Pressure) / Explosion Severity (Max rate): dust explosion risk; for St Classification: general classification designation for explosible dusts.
Excerpt: as §1, §2, §3

Data set [3] in a line: Dust hazard analysis: charge decay time estimation. The data set is classed as physicochemical.
Data set [4] is described as follows: Particle size analysis using an Aerosizer instrument. The data set is classed as physicochemical.
A short description of the next data set: Bulk and true densities. The data set is classed as physicochemical.
The nature of data set [5]: Moisture content by weight loss in vacuum oven. The format is physicochemical. To be noted: 5 gm in a vacuum oven at 60° C. for six hours. The protocol: Particle analysis. […] The sample was checked for moisture content by placing 5 gm in a vacuum oven at 60° C. for six hours and checking weight loss. The free acid lost 0.22% of its initial weight. […] The sample was checked for moisture content by placing 5 gm in a vacuum oven at 60° C. for six hours and checking weight loss. The salt monohydrate lost 0.18% of its initial weight.

For a further data set, the target named is HIV integrase (Human immunodeficiency virus type 1 group M subtype B, UniProt P04585). The note with it: result in words, see U.S. Pat. No. 7,176,196, sodium salt monohydrate, cited from earlier work.

The structures appear in SMILES notation. “Also recorded” adds a separate entry of the source. Where two headings read alike, the source gives them in different places.

`Cc1ncnn1-c1cc(F)ccc1CNC(=O)c1nc2n(c(=O)c1[O-])CCOC2(C)C.[Na+]` [Compound (I), N-[[4-fluoro-2-(5-methyl-1H-1,2,4-triazol-1-yl)phenyl]methyl]-4,6,7,9-tetrahydro-3-hydroxy-9,9-dimethyl-4-oxo-pyrimido[2,1-c][1,4]oxazine-2-carboxamide, sodium salt monohydrate]: in data set [1] (dust explosion risk), the “Minimum Ignition Energy” value is above 500 mJ and the “Minimum Ignition Temperature” value was above 600 °C. The “Susceptibility to ignition as a dust cloud” value in data set [1] is listed as “low susceptibility to ignition as a dust cloud”. In data set [2], the “Explosion Severity (Max Pressure)” value stood at 1.5 bar; the “Explosion Severity (Max rate)” value turned out to be 154 bar/s; the “St Classification” value was “St-1 (“St-1” is not classified as a strong explosion and has Kst<200 bar-m/sec)”. The Explosion characteristics result in data set [2] (result in words) is reported as “weak to moderate explosion characteristics”. For the same molecule, in data set [3], the “Charge Decay Time Estimation” value is 33 min. For the same molecule, in data set [4], the “Particle size, 95% of sample below” value was below 33.6 μm and the “Particle size, mean value” was 14.8 μm. In “Bulk and true densities”, this molecule had a Bulk density of 0.42 gm/cc and a True density of 1.53 gm/cc. Further, the “Moisture content: loss of initial weight” value in data set [5] is on record as 0.18%. In addition, on HIV integrase (listed as Compound I), the “Binding to and antagonism / inhibition of HIV integrase” value is “demonstrated inhibition of HIV integrase”. In addition, the “Binding to and antagonism / inhibition of HIV integrase” value on HIV integrase is “potently bind to and act as an antagonist to HIV integrase”.

On to `Cc1ncnn1-c1cc(F)ccc1CNC(=O)c1nc2n(c(=O)c1O)CCOC2(C)C` [Free acid], for which the “Susceptibility to ignition as a dust cloud” value in data set [1] was “extremely susceptible to igniting as a dust cloud; also recorded: high susceptibility to ignition and risk for explosion”. The same molecule came in with a Kst value in data set [2] (deflagration index of a dust) of 238 bar · m/s. For the same molecule, in data set [2], the “Explosion Severity (Max Pressure)” value stood at 8.2 bar; the “Explosion Severity (Max rate)” value came out at 878 bar/s; the “St Classification” value was “St-2 (“St-2” is classified as a strong explosion designation and has Kst>200 bar-m/sec)”. In addition, the Kst value in data set [2] (twenty liter sphere testing) came out at 238 bar-m/s. Further, in data set [3], the “Charge Decay Time Estimation” value is 330 min. For the same molecule, in data set [4], the “Particle size, 95% of sample below” value is below 32.9 μm and the “Particle size, mean value” is listed as 16.3 μm. Moreover, in “Bulk and true densities”, the Bulk density turned out to be 0.34 gm/cc and the True density worked out at 1.40 gm/cc. The “Moisture content: loss of initial weight” value in data set [5] worked out at 0.22%.

The record behind these values is US20090253692A1, “CRYSTALLINE FORM OF N-[[4-FLUORO-2-(5-METHYL-1H-1,2,4-TRIAZOL-1-YL)PHENYL]METHYL]-4,6,7,9-TETRAHYDRO-3-HYDROXY-9,9-DIMETHYL-4-OXO-PYRIMIDO[2,1-C][1,4]OXAZINE-2-CARBOXAMIDE, SODIUM SALT MONOHYDRATE” (Bristol-Myers Squibb Company, priority 2008, published 2009).
